Assay [1] deals with SMMC-7721 cells. Nature of the assay: MTT cytotoxicity assay, SMMC-7721. It counts as cell-based, human. The conditions noted are these: 48 h exposure. Summed up:
(§1)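 Cells in DMEM with 10% FBS were seeded and allowed to attach for 24 h. They were then exposed to compound dilutions for 48 h at 37 °C, 5% CO2. Viability was measured by MTT (4 h), with formazan dissolved in DMSO and read at 570 nm.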

The test system of assay [2] is SMMC-7721 cells. In words: JC-1 mitochondrial membrane potential assay. Type of assay: cell-based, human. The conditions noted are these: 24 h, control 1.29%. How it is done: It has been widely believed that intracellular ROS accumulation could decrease mitochondrial membrane potential (ΔΨm), which is a characteristic phenomenon of early apoptosis. To investigate the correlation between ΔΨm and apoptosis induced by compound 5f, the measurement of cells with decreased ΔΨm were carried out by JC-1 assay kit on the instructions of the manual.
The JC-1 mitochondrial membrane potential assay kit (Keygene Biotech., Nanjing, China) was employed to measure mitochondrial depolarization in SMMC-7721 cells. The fluorescence probe JC-1 was used to detect the change of mitochondrial membrane potential. Briefly, cells cultured in six-well plates after indicated treatments by compound 5f were incubated with an equal volume of JC-1 staining solution (5 μg/mL) at 37 °C for 20 min and rinsed twice with PBS. Mitochondrial membrane potentials were monitored by determining the relative amounts of dual emissions from mitochondrial JC-1 monomers or aggregates using flow cytometry (Becton-Dickinson FACSCalibur, Franklin Lakes, NJ, USA). Mitochondrial membrane depolarization is indicated by an increase in the percentage of cells with low ΔΨm (green fluorescence, lower right quadrant) compared with cells with high ΔΨm (red fluorescence, upper right quadrant).

The test system of assay [3] is LO2 cells. In words: MTT cytotoxicity assay, normal hepatocyte LO2. Type of assay: cell-based. The conditions noted are these: Homo sapiens, L02, 48 h exposure, normal hepatocyte cell line. In outline:
as §1

Assay [4] has as its system SMMC-7721 cells. In words: ROS generation assay (DCFH-DA, flow cytometry). Type of assay: cell-based, human. The conditions noted are these: 48 h, control 3.97%. How it is done:
Reactive oxygen species (ROS), which can exert oxidative stress to cells and lead to disturbances in mitochondrial membrane potential, are important mediators for the induction of apoptosis in many cancer cells. To determine whether the apoptosis induced by compound 5f was associated with intracellular ROS level, SMMC-7721 cells treated with different concentrations of 5f were stained with the fluorescent probe DCFH-DA and analyzed by flow cytometry.
ROS generation assay was performed by using the reactive oxygen species assay kit (Beyotime Biotech., Shanghai, China). Intracellular ROS generation was tested through dichlorodihydro fluorescein diacetate (DCFH-DA) assay. DCFH-DA is taken up by SMMC-7721 cells, and then activated by esterase-mediated cleavage of acetate to form dichlorodihydro fluorescein (DCFH), which is trapped in the cells. DCFH is converted to fluorescein DCF in the presence of ROS. SMMC-7721 cells were seeded in six-well plates and incubated with different concentrations of compound 5f for 48 h. After removing the compound solution, cells were treated with 10 μM of DCFH-DA at 37 °C for 20 min. Subsequently, the cells were washed with PBS for three times and then exposed to light. Immediately after light exposure, the fluorescence intensity of dichlorofluorescein (DCF) was measured with excitation at 488 nm and emission at 525 nm by a flow cytometry (Becton-Dickinson FACSCalibur, Franklin Lakes, NJ, USA).

Assay [5] concerns SMMC-7721 cells. Nature of the assay: Annexin V-FITC/PI staining apoptosis assay by flow cytometry. Type of assay: cell-based, human. The conditions noted are these: 48 h, control 4.41%. As to the method: To further investigate the role of apoptosis in the antitumor activity of compound 5f, SMMC-7721 cells were treated with different concentrations of compound 5f (0, 0.3, 0.6, and 1.2 μM) for 48 h. Then the treated cells were stained with Annexin V-FITC/PI followed by flow cytometry analysis.
The extent of apoptosis was quantitatively measured using Annexin V-FITC/PI dual staining assay. SMMC-7721 cells were seeded into a six-well plate at 5 × 10^5 cells per well in 10% fetal calf serum (FBS)-DMEM into six-well plates and treated with different concentrations of the indicated compound 5f for 48 h. The cells were detached with 0.25% trypsin, washed with ice-cold PBS for twice and then resuspended in 1 × Binding buffer (0.1 M Hepes/NaOH (pH 7.4), 1.4 M NaCl, 25 mM CaCl2). The cells were stained with 5 μL of Annexin V-FITC and 5 μL of PI ([…]) to each tube. The cells were gently vortexed and incubated in the dark at room temperature for 15 min and then kept at 4 °C. The samples were analyzed by a flow cytometer (Becton-Dickinson FACSCalibur, Franklin Lakes, NJ, USA), and data were analyzed using the FlowJo software (Becton-Dickinson Biosciences, Franklin Lakes, NJ, USA).

Assay [6] deals with HepG2 cells. In words: MTT cytotoxicity assay, HepG2. It counts as cell-based, human. The conditions noted are these: 48 h exposure. Summed up:
as §1

Assay [7] concerns the target T1, Human Topoisomerase IIα (Homo sapiens, UniProt P11388).
T1 construct: purchased USB, Affymetrix, Waltham, MA, USA
In words: Topoisomerase II relaxation assay (supercoiled pBR322). Type of assay: biochemical. In outline: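 Compounds (in 2% v/v DMSO) pre-incubated 15 min with human Topo IIα and supercoiled pBR322 DNA, then reacted 30 min at 37 °C and stopped with 7 mM EDTA. Relaxed vs supercoiled DNA resolved on 1% TAE-agarose, ethidium bromide-stained and imaged. Etoposide served as positive control.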

The structures appear in SMILES notation.

T1 sequence (P11388 whole entry): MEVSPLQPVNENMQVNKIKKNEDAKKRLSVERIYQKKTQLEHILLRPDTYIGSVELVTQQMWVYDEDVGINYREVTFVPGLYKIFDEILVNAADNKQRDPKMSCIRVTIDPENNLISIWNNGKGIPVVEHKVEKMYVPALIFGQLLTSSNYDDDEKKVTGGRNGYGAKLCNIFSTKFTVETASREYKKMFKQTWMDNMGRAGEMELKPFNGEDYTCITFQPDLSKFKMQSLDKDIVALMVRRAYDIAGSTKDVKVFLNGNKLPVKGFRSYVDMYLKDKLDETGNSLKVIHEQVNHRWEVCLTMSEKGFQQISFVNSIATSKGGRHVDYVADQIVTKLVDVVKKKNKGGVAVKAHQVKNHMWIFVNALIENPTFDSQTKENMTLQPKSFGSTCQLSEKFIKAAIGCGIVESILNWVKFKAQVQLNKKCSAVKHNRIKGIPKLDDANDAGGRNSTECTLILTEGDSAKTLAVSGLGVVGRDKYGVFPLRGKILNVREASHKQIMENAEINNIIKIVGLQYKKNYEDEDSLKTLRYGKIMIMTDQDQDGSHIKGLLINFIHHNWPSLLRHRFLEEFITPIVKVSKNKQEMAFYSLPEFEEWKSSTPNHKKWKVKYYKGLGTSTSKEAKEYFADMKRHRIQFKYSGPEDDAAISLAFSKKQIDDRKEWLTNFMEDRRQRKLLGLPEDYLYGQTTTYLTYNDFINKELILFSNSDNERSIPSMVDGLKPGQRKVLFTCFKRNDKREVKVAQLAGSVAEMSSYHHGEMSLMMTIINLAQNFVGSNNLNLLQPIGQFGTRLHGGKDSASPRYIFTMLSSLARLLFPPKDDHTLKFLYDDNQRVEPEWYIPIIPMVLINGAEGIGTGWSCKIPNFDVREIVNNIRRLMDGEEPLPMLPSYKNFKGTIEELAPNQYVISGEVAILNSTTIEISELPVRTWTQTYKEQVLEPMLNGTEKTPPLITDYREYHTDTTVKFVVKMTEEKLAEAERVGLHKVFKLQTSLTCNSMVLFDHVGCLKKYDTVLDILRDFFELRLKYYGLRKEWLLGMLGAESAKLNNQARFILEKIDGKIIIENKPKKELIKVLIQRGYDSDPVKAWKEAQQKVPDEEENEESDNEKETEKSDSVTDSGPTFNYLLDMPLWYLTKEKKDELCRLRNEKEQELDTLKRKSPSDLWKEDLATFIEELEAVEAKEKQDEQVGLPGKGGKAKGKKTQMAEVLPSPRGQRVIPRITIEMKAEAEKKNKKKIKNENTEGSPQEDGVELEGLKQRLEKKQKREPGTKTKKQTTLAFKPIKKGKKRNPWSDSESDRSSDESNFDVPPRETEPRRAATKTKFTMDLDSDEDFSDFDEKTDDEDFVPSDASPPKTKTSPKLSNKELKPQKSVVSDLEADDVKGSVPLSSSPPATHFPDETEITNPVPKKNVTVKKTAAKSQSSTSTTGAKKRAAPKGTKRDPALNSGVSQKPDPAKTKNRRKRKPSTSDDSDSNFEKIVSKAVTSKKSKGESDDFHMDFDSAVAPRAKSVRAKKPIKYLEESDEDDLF

As to `Cc1ccc2[nH]c3c(c2c1)C[C@@]1(C)C(CC[C@]2(C)C1CC=C1C4[C@@H](C)[C@H](C)CC[C@]4(C(=O)NCCCN4CCN(C)CC4)CC[C@]12C)C3(C)C` (stereo partly shown) [5f, N-(3-(4-Methylpiperazin-1-yl)propyl)-5′-methyl-1′H-ursa-2,12-dieno[3,2-b]indol-28-carboxamide], the IC50 in assay [1] is 0.56 ± 0.08 µM; in assay [1] (Homo sapiens, SMMC-7721, 48 h) it was roughly 1 µM; in assay [3], 10.6 ± 0.52 µM; in assay [6], 0.91 ± 0.13 µM; in assay [6] (Homo sapiens, HepG2, 48 h), roughly 1 µM. Also, the “percentage of cells with low ΔΨm” value in assay [2] (0.3 μM) worked out at 7.43%; in assay [2] (0.6 μM) it was 16.28%; in assay [2] (1.2 μM), 32.34%. The entries for the “cells with elevated ROS levels (% relative ROS raised cells)” value in assay [4] (0.3 μM), in assay [4] (0.6 μM) and in assay [4] (1.2 μM) were 9.89%, 19.84% and 34.61%, respectively. Also, the “percentage of early and late apoptotic cells” value in assay [5] (0.3 μM) came to 9.13%; in assay [5] (0.6 μM), 21.36%; in assay [5] (1.2 μM), 30.33%. Moreover, in assay [7] (20 μM compound, read-out: Topo II Inhibition (%) 20 μM), the inhibition at 20 µM was 43.2%. Moreover, the inhibition at 100 µM in assay [7] (100 μM compound, read-out: Topo II Inhibition (%) 100 μM) turned out to be 83.5%.
